Test results reported in ChEMBL document CHEMBL4028802, “DILIrank: the largest reference drug list ranked by the risk for developing drug-induced liver injury in humans” (Drug Discov Today, 2016).

How the values were obtained:
Homo sapiens [1] = species: Homo sapiens; assay: Liver toxicity in human assessed as induction of drug-induced liver injury by measuring verified drug-induced liver injury concern status
Homo sapiens [2] = species: Homo sapiens; assay: Liver toxicity in human assessed as induction of drug-induced liver injury by measuring severity class index
Wherever DILI severity class is given: key of the grades not given here.

SMILES | DILI_Concern (Homo sapiens [1]) | DILI_severity_class (Homo sapiens [2])
NS(=O)(=O)c1cc2c(cc1C(F)(F)F)NCNS2(=O)=O [HYDROFLUMETHIAZIDE] | Ambiguous-Dili-Concern | 2
CN(CCOc1ccc(NS(C)(=O)=O)cc1)CCc1ccc(NS(C)(=O)=O)cc1 [DOFETILIDE] | No-Dili-Concern | 0
CO/N=C(\C(=O)N[C@@H]1C(=O)N2C(C(=O)O)=C(/C=C\c3scnc3C)CS[C@H]12)c1csc(N)n1 [CEFDITOREN] | Ambiguous-Dili-Concern | 2
Cc1ncc(CO)c(CO)c1O [PYRIDOXINE] | No-Dili-Concern | 0
CC(C)NCC(O)c1ccc(NS(C)(=O)=O)cc1 (centres undefined) [SOTALOL] | Ambiguous-Dili-Concern | 3
COC(c1ccccc1)(c1ccccc1)[C@H](Oc1nc(C)cc(C)n1)C(=O)O [AMBRISENTAN] | Ambiguous-Dili-Concern | 7
O=C(O)COCCN1CCN(C(c2ccccc2)c2ccc(Cl)cc2)CC1 (centres undefined) [CETIRIZINE] | Less-Dili-Concern | 3
CCN(CC)CCNC(=O)c1ccc(N)cc1 [PROCAINAMIDE] | Less-Dili-Concern | 4
Cc1cc2c(cc1CC(=O)c1sccc1S(=O)(=O)Nc1onc(C)c1Cl)OCO2 [SITAXENTAN] | Most-Dili-Concern | 8
CCC(C)CCCCC(=O)N[C@@H](CCNCS(=O)(=O)O)C(=O)N[C@H](C(=O)N[C@@H](CCNCS(=O)(=O)O)C(=O)N[C@H]1CCNC(=O)[C@H]([C@@H](C)O)NC(=O)[C@H](CCNCS(=O)(=O)O)NC(=O)[C@H](CCNCS(=O)(=O)O)NC(=O)[C@H](CC(C)C)NC(=O)[C@@H](CC(C)C)NC(=O)[C@H](CCNCS(=O)(=O)O)NC1=O)[C@@H](C)O (some centres undefined) | No-Dili-Concern | 0
CCc1ccc(CCOc2ccc(CC3SC(=O)NC3=O)cc2)nc1 (centres undefined) [PIOGLITAZONE] | Less-Dili-Concern | 3
Cc1cn[nH]c1 [FOMEPIZOLE] | Ambiguous-Dili-Concern | 3
C[C@@H](O)[C@H]1C(=O)N2C(C(=O)O)=C(S[C@@H]3CN[C@H](C(=O)N(C)C)C3)[C@H](C)[C@H]12 [MEROPENEM] | Less-Dili-Concern | 3
CCCC(C)(COC(N)=O)COC(N)=O [MEPROBAMATE] | No-Dili-Concern | 0
CN(C)CCOC(c1ccccc1)c1ccccc1.Cn1c(=O)c2[nH]c(Cl)nc2n(C)c1=O [DIMENHYDRINATE] | No-Dili-Concern | 0
CC(=O)NO [ACETOHYDROXAMIC ACID] | Ambiguous-Dili-Concern | 3
CCn1cc(C(=O)O)c(=O)c2ccc(C)nc21 [NALIDIXIC ACID] | Ambiguous-Dili-Concern | 3
CCC1(C)CC(=O)NC1=O (centres undefined) [ETHOSUXIMIDE] | Ambiguous-Dili-Concern | 3
CCN(CC)C(=O)C1(c2ccccc2)CC1CN (centres undefined) | Most-Dili-Concern | 7

SMILES | DILI_Concern (Homo sapiens [1]) | DILI_severity_class (Homo sapiens [2])
CCc1cccc2c3c([nH]c12)C(CC)(CC(=O)O)OCC3 (centres undefined) [ETODOLAC] | Most-Dili-Concern | 8
NS(=O)(=O)c1cc2c(cc1Cl)N=CNS2(=O)=O [CHLOROTHIAZIDE] | Less-Dili-Concern | 2
O=C(NCC1CCCCN1)c1cc(OCC(F)(F)F)ccc1OCC(F)(F)F (centres undefined) [FLECAINIDE] | Less-Dili-Concern | 7
Cc1ccc(C(=O)c2ccc(CC(=O)O)n2C)cc1 [TOLMETIN] | Less-Dili-Concern | 3
CCC(C)C1(CC)C(=O)NC(=O)NC1=O (centres undefined) [BUTABARBITAL] | Ambiguous-Dili-Concern | 3
[H]/N=C(/N)N[C@H]1[C@H](O)[C@@H](O)[C@H](O[C@@H]2O[C@@H](C)[C@](O)(C=O)[C@H]2O[C@@H]2O[C@@H](CO)[C@H](O)[C@@H](O)[C@@H]2NC)[C@@H](N/C(N)=N\[H])[C@@H]1O [STREPTOMYCIN] | No-Dili-Concern | 0
O=[N+]([O-])OCC(CO[N+](=O)[O-])O[N+](=O)[O-] [NITROGLYCERIN] | No-Dili-Concern | 0
NNCCc1ccccc1 [PHENELZINE] | Less-Dili-Concern | 3
COc1ccc([C@@H]2Sc3ccccc3N(CCN(C)C)C(=O)[C@@H]2OC(C)=O)cc1 [DILTIAZEM] | Most-Dili-Concern | 4
CCN(CCO)CCCC(C)Nc1ccnc2cc(Cl)ccc12 (centres undefined) [HYDROXYCHLOROQUINE] | Less-Dili-Concern | 7
COc1cccc2c1C(=O)c1c(O)c3c(c(O)c1C2=O)C[C@@](O)(C(=O)CO)C[C@@H]3O[C@H]1C[C@H](N)[C@H](O)[C@H](C)O1 [DOXORUBICIN] | Less-Dili-Concern | 3
CC(=O)O[C@H]1C(=O)[C@@]2(C)[C@H]([C@H](OC(=O)c3ccccc3)[C@]3(O)C[C@H](OC(=O)[C@H](O)[C@@H](NC(=O)c4ccccc4)c4ccccc4)C(C)=C1C3(C)C)[C@]1(OC(C)=O)CO[C@@H]1C[C@@H]2O [PACLITAXEL] | Less-Dili-Concern | 4
CCOc1nc2cccc(C(=O)O)c2n1Cc1ccc(-c2ccccc2-c2nnn[nH]2)cc1 | Less-Dili-Concern | 3
COCCCOc1ccnc(C[S+]([O-])c2nc3ccccc3[nH]2)c1C (centres undefined) [RABEPRAZOLE] | Less-Dili-Concern | 3
CC1(C)C(/C=C/C=C/C=C/C=C2/N(CCCCS(=O)(=O)[O-])c3ccc4ccccc4c3C2(C)C)=[N+](CCCCS(=O)(=O)[O-])c2ccc3ccccc3c21.[Na+] [INDOCYANINE GREEN] | No-Dili-Concern | 0
Cc1nnc(C(C)C)n1[C@@H]1C[C@H]2CC[C@@H](C1)N2CC[C@H](NC(=O)C1CCC(F)(F)CC1)c1ccccc1 [MARAVIROC] | Most-Dili-Concern | 3
Cc1c(OCC(F)(F)F)ccnc1C[S@@+]([O-])c1nc2ccccc2[nH]1 [DEXLANSOPRAZOLE] | Less-Dili-Concern | 4
O=C(O)COc1ccc(C(=O)c2cccs2)c(Cl)c1Cl | Most-Dili-Concern | 8
O=C(O)c1ccc(-n2nc(-c3ccccc3O)nc2-c2ccccc2O)cc1 [DEFERASIROX] | Most-Dili-Concern | 7

SMILES | DILI_Concern (Homo sapiens [1]) | DILI_severity_class (Homo sapiens [2])
CC(C)(Oc1ccc(C(=O)c2ccc(Cl)cc2)cc1)C(=O)O [FENOFIBRIC ACID] | Ambiguous-Dili-Concern | 2
CC1(C)S[C@@H]2[C@H](NC(=O)[C@H](N)c3ccc(O)cc3)C(=O)N2[C@H]1C(=O)O [AMOXICILLIN] | Less-Dili-Concern | 5
CC(C)(O/N=C(\C(=O)N[C@@H]1C(=O)N2C(C(=O)[O-])=C(C[n+]3ccccc3)CS[C@H]12)c1csc(N)n1)C(=O)O [CEFTAZIDIME] | Less-Dili-Concern | 3
COC1=CC(=O)C[C@@H](C)[C@]12Oc1c(Cl)c(OC)cc(OC)c1C2=O [GRISEOFULVIN] | Most-Dili-Concern | 8
NC(=O)c1cn(Cc2c(F)cccc2F)nn1 [RUFINAMIDE] | Ambiguous-Dili-Concern | 3
CCN(CC)CCNC(=O)c1c(C)[nH]c(/C=C2\C(=O)Nc3ccc(F)cc32)c1C [SUNITINIB] | Most-Dili-Concern | 8
C=C(CC)C(=O)c1ccc(OCC(=O)O)c(Cl)c1Cl [ETHACRYNIC ACID] | Ambiguous-Dili-Concern | 5
CCOC(=O)Nc1ccc2c(c1)N(C(=O)CCN1CCOCC1)c1ccccc1S2 [MORICIZINE] | Ambiguous-Dili-Concern | 5
CCOC(=O)[C@H](CCc1ccccc1)N[C@@H](C)C(=O)N1[C@H](C(=O)O)C[C@H]2CCCC[C@@H]21 [TRANDOLAPRIL] | Less-Dili-Concern | 4
NS(=O)(=O)c1cc(C2(O)NC(=O)c3ccccc32)ccc1Cl (centres undefined) [CHLORTHALIDONE] | Ambiguous-Dili-Concern | 2
O=C1CCCC(=O)C1C(=O)c1ccc(C(F)(F)F)cc1[N+](=O)[O-] [NITISINONE] | Ambiguous-Dili-Concern | 7
Cc1cc2c(s1)Nc1ccccc1N=C2N1CCN(C)CC1 [OLANZAPINE] | Less-Dili-Concern | 3
CCO[C@@H]1OC(=O)C[C@@H]1NC(=O)[C@@H]1CCCN2C(=O)CC[C@H](NC(=O)c3nccc4ccccc34)C(=O)N12 | Most-Dili-Concern | 8
NCCCC(O)(P(=O)(O)O)P(=O)(O)O [ALENDRONIC ACID] | Less-Dili-Concern | 0
C[C@H](CCC(=O)O)[C@H]1CC[C@H]2[C@@H]3[C@H](O)C[C@@H]4C[C@H](O)CC[C@]4(C)[C@H]3CC[C@]12C [CHENODIOL] | Ambiguous-Dili-Concern | 8
C=CC[N+]1([C@H]2C[C@H]3[C@@H]4CC[C@H]5C[C@H](O)C(N6CCOCC6)C[C@]5(C)[C@H]4CC[C@]3(C)[C@H]2OC(C)=O)CCCC1 (some centres undefined) | No-Dili-Concern | 0
CC(C)(C(=O)O)c1ccc(C(O)CCCN2CCC(C(O)(c3ccccc3)c3ccccc3)CC2)cc1 (centres undefined) [FEXOFENADINE] | No-Dili-Concern | 0
CN(C)C/C=C(/c1ccc(Br)cc1)c1cccnc1 [ZIMELDINE] | Most-Dili-Concern | 8
CC(C)Cc1ccc(CC(=O)O)cc1 [IBUFENAC] | Most-Dili-Concern | 8
